Source: patent EP4786487A1, “PEPTIDE” (Peptidream Inc, priority 2023, dated 2025)
Starred links: 1 amine or outer side, 2 acyl side, 3 side chain; linkers in the order of their positions; H or OH if unused. Positions of bridges follow the written chain, without caps; N, C: chain ends. Non-standard residues stand in square brackets, D forms with d. Residues, ends and D or L forms follow the SMILES beside them. Phe(3-OCH2COOH) = N[C@@H](Cc1cccc(OCC(=O)O)c1)C(=O)O; Phe(4-COOH) = N[C@@H](Cc1ccc(C(=O)O)cc1)C(=O)O; Gly(N(CH2)3COOH) = O=C(O)CCCNCC(=O)O; X1 = CCCCCCC[C@H](N[*:1])C(=O)[*:2]; NMeF = CN[C@@H](Cc1ccccc1)C(=O)O; NMeA = CN[C@@H](C)C(=O)O

Columns and labels:
activin A = target: T1, activin A (Homo sapiens, UniProt P08476); assay: Reporter gene assay for myostatin signaling in HEK-Blue TGF-β Cells, activin A; format: cell-based; settings: activin A 3 ng/mL
T1 construct: purchased R&D systems 338-AC-010/CF
T1 sequence (P08476 311-426): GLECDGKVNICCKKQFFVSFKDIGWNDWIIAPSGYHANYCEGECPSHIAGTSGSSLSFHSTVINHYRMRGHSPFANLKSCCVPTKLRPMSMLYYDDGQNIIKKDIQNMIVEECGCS
Method: In this Example, the in vitro activity of the peptide Myostatin_99_v145 (SEQ ID NO: 30) was evaluated using a reporter gene assay for myostatin signaling.
HEK-Blue (trademark) TGF-β Cells (hkb-tgfbv2, InvivoGen) were cultured in DMEM High glucose GlutaMAX (10569010, Thermo) containing 10% FBS (Heat-inactivated FBS QUALIFIED, 10270-106, Gibco), […] Normocin (ant-nr-05, InvivoGen), […] Zeocin (ant-zn-05, InvivoGen), and 50 µg/mL Gentamicin (11980-14, Nacalai Tesque). The cultured HEK-Blue (trademark) TGF-β Cells were suspended in an assay medium containing DMEM High glucose GlutaMAX, 50 µg/mL Gentamicin, and 1% bovine serum albumin (A7030, Sigma). The cells were seeded at 4 × 10^4 cells/well onto a 96-well plate (356461, Corning), namely BioCoat poly-D-lysine multi-well plate, and allowed to stand for 30 min. […]
To each well of a UV-Star µClear 96-well (655801, Greiner), 180 µL of Detection buffer (prepared by diluting, with 17.64 mL of distilled water, 180 µL of QUANTI-Blue buffer and 180 µL of QUANTI-Blue solution) was dispensed. […] The plate was covered and incubated in a CO2 incubator for 3 to 5 hours, and absorbance was measured (Envision 2104, PerkinElmer, 620 nm/bp 40 nm). Based on the absorbance, IC50 values of the peptide were calculated using software (Prism 9, GraphPad).

DBA/2 mdx model mice = assay: Subcutaneously administered peptide, improvement of muscle strength in DBA/2 mdx mice; format: in vivo, DBA/2N-mdx mice; settings: Fig. 5
Method: In this Example, the effect of the peptide Myostatin_99_v145 (SEQ ID NO: 30) was evaluated on improvement of muscle strength in DMD model mice.
To twenty-week-old female DBA/2N-mdx mice (Central Institute for Experimental Medicine and Life Science), Myostatin_99_v145 or solvent control (PBS) was subcutaneously administered once a week for 4 weeks as shown in Table 12. As a Comparative Example, a single intravenous dose of anti-latent myostatin antibody (GYM329-BS) was administered.
Using a smart-type grip strength meter for rats and mice (MK-380V; Muromachi Kikai Co., Ltd.), forelimb and hindlimb grip strength measurements were performed on the day of completion of the acclimation period (grouping day), and on Days 7, 14, 21, and 26. The measurements were conducted with individual identification numbers blinded so that the examiner was unaware of the test conditions of the mice. The grip strength was measured seven times consecutively, and the average of five points, excluding the two points: the highest and lowest values, was used as individual data.

IC50 (activin A; read-out: IC50 (nmol/L) Activin A): > 20000 nmol/L | IC90 (activin A; read-out: IC90 (nmol/L) Activin A): > 20000 nmol/L
Compound: CCCCCCC[C@@H]1NC(=O)[C@H](Cc2ccccc2)N(C)C(=O)[C@H](CCCNC(=N)N)NC(=O)[C@H](Cc2ccc(C(=O)O)cc2)NC(=O)[C@H](Cc2cccc(OCC(=O)O)c2)NC(=O)[C@H](C)N(C)C(=O)[C@H]([C@@H](C)CC)NC(=O)[C@H](Cc2ccccc2)N(C)C(=O)[C@H](Cc2ccc(O)cc2)NC(=O)[C@H](Cc2c[nH]c3ccccc23)NC(=O)[C@H](C)NC(=O)CN(CCCC(=O)O)C(=O)CSC[C@H](C(=O)O)NC(=O)[C@H](Cc2ccccc2)N(C)C(=O)[C@H](C)N(C)C1=O [Myostatin_99_v145] ({CH2CO}-[Gly(N(CH2)3COOH)]AWY[NMeF]I[NMeA][Phe(3-OCH2COOH)][Phe(4-COOH)]R[NMeF][X1][NMeA][NMeF][dC]-OH; thioether N-15)
time-course change in grip strength (DBA/2 mdx model mice; 1 and 3 mg/kg subcutaneous once a week for 4 weeks, vs. PBS Vehicle group): continuous increase in grip strength was observed in a dose-dependent manner | maximum effect (grip strength) compared with GYM329-BS (DBA/2 mdx model mice; GYM329-BS 10 mg/kg single intravenous dose): higher than that of GYM329-BS
